From patent US6642256B2, “Piperidine derivatives as subtype selective N-Methyl-D-Aspartate antagonists” (Warner-Lambert Company LLC, priority 2000, dated 2003)
Like-named read-outs stand apart in the source and are kept apart here. Each block holds one molecule with its values, some of them ahead of it.

Experiments:
[1] = target: T1, NR1A/NR2B NMDA receptor subtype (Rattus norvegicus, UniProt P35439+Q00960); assay: [3H]Ifenprodil binding assay (IFPNR), rat forebrain membranes
T1 construct: buffy coat membrane fraction was prepared from frozen adult rat forebrains; tissue Zivic-Miller Laboratories, Inc; host or cells: adult rat forebrain membranes
Procedure: b. [^3H]Ifenprodil Binding Assay (IFPNR) Protocol:
Ifenprodil, [phenyl-^3H]-(specific activity, 66.2 Ci/mmol) was purchased from Dupont NEN Research Products (Boston, Mass.). Ifenprodil tartrate was purchased from Research Biochemicals International (Natick, Mass.). HEPES, glutamate and glycine were purchased from Sigma Chemical Co. (St. Louis, Mo.).
All buffers and reagents used in assay incubations or to dissolve drugs were prepared using water purified through a Milli-Q reverse osmosis system (Millipore Corp., Bedford, Mass.) and treated with UV emissions. Prior to use in the assays buffers were further filtered through a sterile Coming filtration unit (Coming Glass Works, Coming, N.Y.) containing a 0.2 micron filter. Buffer used to rinse the membranes on the assay filters was prepared with purified water, but was not refiltered and was stored no longer than 5 days. Stock solutions of the drugs (usually 10 mM) were dissolved in 20 mM HEPES-KOH buffer pH 7.4 (assay buffer) with the addition of 1 to 5 μL of glacial AcOH, if needed to keep them in solution. Eliprodil was used as the reference NMDA antagonist. A stock solution of eliprodil was prepared, and was buffered with the addition of 10% DMSO. All subsequent dilutions from the stock solution were made in buffer.
An extensively washed buffy coat membrane fraction was prepared from frozen adult rat forebrains (Zivic-Miller Laboratories, Inc., Zelienople, Pa.) as described by Coughenour L. L.; Cordon, J. J., J. Pharmacol. Exp. Ther., 1997;280:584-592, and stored at −80° C. On the day of the assay, pellets of the frozen membrane fractions were resuspended in 35 mL of assay buffer at pH 7.4 using a POLYTRON (Kinematica A. G. Company, Littau, Switzerland) mixer at setting 6. After incubation at 37° C. for 30 minutes in a shaking water bath, the homogenate was centrifuged 40,000×g for 10 minutes at 4° C. The pellets were resuspended in fresh buffer and centrifuged 3 more times before final suspension for use in the assay.
(iii) [^3H]Ifenprodil Binding protocol:
Triplicate incubations were carried out in a volume of 0.5 mL in 1.3 mL polypropylene tubes (Marsh Biomedical Products Inc, Rochester, N.Y.) for 2 hours at room temperature. Incubations contained invention compounds, membranes (100-200 μg protein) and 4 nM [^3H]-ifenprodil in 20 mM HEPES-KOH buffer, pH 7.4 (assay buffer). Assays were started by addition of the membranes. Bound radioligand was separated by filtration under reduced pressure using a TOMTEC Mach II, 96-well cell harvester (Tomtec Inc, Orange, Conn.). Filtration was through Whatman GF/B glass fiber filters (Whatman Ltd., Maidstone, England), which had been soaked for at least 15 minutes in 0.3% polyethylenimine and allowed to air dry. The filters were rinsed with 3 mL of ice cold assay buffer within 6 seconds. Air was allowed to pass through the filters for an additional 10 seconds to remove residual moisture. The filter mat was supported on a cold (−20° C.) TEFLON (E. I. Du Pont de Nemours and Company, Wilmington, Del.) coated support, and filters from individual wells were separated and placed in Mini Poly-Q vials (Becklman Instruments Inc, Fullerton, Calif.) and filled with 4 mL of scintillation cocktail (Beckman Ready Protein^+). Radioactivity retained on the filter was determined by liquid scintillation spectrophotometry. Nonspecific binding was defined as the binding in the presence of […] ifenprodil. Ninety percent of the total binding of ifenprodil was specific binding at the NR1A/NR2B NMDA receptor subtype active site (as opposed to binding at a remote site).
Binding curves were statistically analyzed for a best 1- or 2-site competition fit using GRAPHPAD PRISM software (GraphPad Software Inc, San Diego, Calif.), a computer program used to analyze and graph scientific data. The normalized data was fitted by nonweighted nonlinear regression to either [formula]
Control data was entered as 100%, and no parameters were constrained. […]

[2] = tested on: Male Wistar albino rats; assay: Formalin footpad test (FT); assay type: in vivo, rat; details: PO, statistically significant decrease in late-phase pain behaviour versus vehicle
Procedure: a. The Formalin Footpad Test (FT):
The FT model was used to test invention compounds for pain alleviating properties. The model produces a biphasic response in a test animal that results from a change in pain intensity over time. The FT model utilizes an injection of dilute formalin into the hindpaw of a rodent, which produces high intensity acute pain behaviors which are measured for the first 10 minutes post formalin injection (early phase responding). High intensity acute pain behaviors include rapid licking or biting of the injected hindpaw. The second phase is a prolonged period of lower intensity pain behaviors (late phase responding) which are measured from 11 to 45 minutes post-formalin injection.
Male Wistar albino rats (Harlan Sprague-Dawley Labs), weighing approximately 100 g at the time of testing, were used. Animals were group-housed and acclimated to the housing facility for 1 week prior to testing. Animals were maintained on a 12-hour/12-hour light/dark cycle and fed block rodent chow. From 4 to 8 animals were randomly assigned to either a vehicle-only dose group or a vehicle-plus invention compound treatment group on the day of testing.
The testing apparatus was a 16″×8″ box divided into two 8″×8″ testing chambers. Each testing chamber comprised a floor and 3 walls made of clear plastic mirrors, and a fourth wall which was clear plastic that allowed observation of animal behavior. The top of each chamber was covered with a metal screen during testing to prevent animals from climbing out of the chamber. Two animals were tested simultaneously in the adjoining boxes, but animals were unable to observe one another.
Animals were weighed and placed into holding cages (2 animals per cage) in the testing room prior to dosing. Following approximately 30 minutes of acclimation to the testing room, each pair of animals was administered orally (PO) by gavage a mixture of invention compound plus vehicle or vehicle alone. The treated animals were then placed in individual test chambers and allowed to acclimate to the chambers for at least 20 minutes. Then 50 μL of a 2.5% solution of formalin in vehicle was injected subcutaneously (SC) in the plantar surface of the left hindpaw from 30 to 120 minutes after administration of the invention compound. A session timer was started following the formalin injection, and the amount of time the animal spent licking or biting the injected paw was clocked with a hand-held stopwatch. The cumulative time spent engaging in a pain response was manually recorded at 5-minute intervals for 45 minutes post formalin injection. Early phase responding included Minutes 0 to 10, and late phase responding included Minutes 11 to 45. At the end of the testing period, animals were sacrificed using carbon dioxide. […]

[3] = Table 3, 4 nM [3H]-ifenprodil, read-out: IFPNR IC50
[4] = Table 2, 4 nM [3H]-ifenprodil, read-out: IFPNR IC50 μm
[5] = Table 4, 4 nM [3H]-ifenprodil, read-out: IFPNR IC50

T1 sequence (Q00960 27-1482, other chains not shown): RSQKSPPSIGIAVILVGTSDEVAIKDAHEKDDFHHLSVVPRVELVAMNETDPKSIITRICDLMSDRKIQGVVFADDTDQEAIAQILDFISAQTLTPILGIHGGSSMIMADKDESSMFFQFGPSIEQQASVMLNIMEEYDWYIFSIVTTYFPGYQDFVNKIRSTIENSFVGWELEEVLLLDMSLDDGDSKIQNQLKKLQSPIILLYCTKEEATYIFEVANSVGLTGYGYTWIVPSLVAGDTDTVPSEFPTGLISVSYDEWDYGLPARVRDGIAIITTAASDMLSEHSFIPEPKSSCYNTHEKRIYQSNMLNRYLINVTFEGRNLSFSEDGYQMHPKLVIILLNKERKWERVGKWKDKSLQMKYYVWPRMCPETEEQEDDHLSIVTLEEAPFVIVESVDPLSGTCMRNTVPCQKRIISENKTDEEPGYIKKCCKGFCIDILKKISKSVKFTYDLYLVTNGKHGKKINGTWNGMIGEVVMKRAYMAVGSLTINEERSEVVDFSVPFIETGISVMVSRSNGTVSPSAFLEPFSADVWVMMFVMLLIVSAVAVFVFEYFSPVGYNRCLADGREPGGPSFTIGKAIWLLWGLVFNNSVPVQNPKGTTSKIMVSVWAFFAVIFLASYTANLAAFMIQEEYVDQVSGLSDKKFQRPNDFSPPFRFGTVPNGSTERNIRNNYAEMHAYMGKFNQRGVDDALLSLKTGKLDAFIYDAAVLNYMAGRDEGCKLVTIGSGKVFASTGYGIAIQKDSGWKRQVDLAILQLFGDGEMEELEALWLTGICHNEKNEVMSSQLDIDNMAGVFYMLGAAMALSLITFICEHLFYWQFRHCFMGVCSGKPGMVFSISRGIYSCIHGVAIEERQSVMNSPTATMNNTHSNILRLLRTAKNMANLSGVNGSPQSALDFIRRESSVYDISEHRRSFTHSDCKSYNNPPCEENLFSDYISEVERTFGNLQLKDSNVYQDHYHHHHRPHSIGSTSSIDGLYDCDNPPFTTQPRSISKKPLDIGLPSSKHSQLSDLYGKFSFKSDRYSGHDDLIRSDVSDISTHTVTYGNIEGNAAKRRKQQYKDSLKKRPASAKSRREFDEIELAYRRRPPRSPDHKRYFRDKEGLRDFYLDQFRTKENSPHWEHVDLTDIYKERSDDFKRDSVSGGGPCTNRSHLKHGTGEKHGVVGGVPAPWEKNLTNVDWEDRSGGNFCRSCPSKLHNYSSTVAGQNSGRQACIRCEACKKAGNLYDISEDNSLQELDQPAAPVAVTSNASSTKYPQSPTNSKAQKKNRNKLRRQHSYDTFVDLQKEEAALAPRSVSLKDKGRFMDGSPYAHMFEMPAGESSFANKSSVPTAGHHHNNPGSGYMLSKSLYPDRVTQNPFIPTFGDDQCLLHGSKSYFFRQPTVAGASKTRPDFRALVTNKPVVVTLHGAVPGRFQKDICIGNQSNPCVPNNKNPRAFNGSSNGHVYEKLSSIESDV

Compound: O=C(C1CC(c2ccc3[nH]c(=O)oc3c2)=NO1)N1CCC(Cc2ccc(F)cc2)CC1 (stereo not shown) [Example 18, 6-{5-[4-(4-Fluorobenzyl)piperidine-1-carbonyl]-4,5-dihydroisoxazol-3-yl}-3H-benzoxazol-2-one]
melting point: 210 to 213 °C
IC50 [1, 3]: > 1 µM

Compound: O=c1[nH]c2ccc(C3CC(CN4CCC(Cc5ccc(F)cc5)CC4)=NO3)cc2o1 (stereo not shown) [Example 5, 6-{3-[4-(4-Fluorobenzyl)piperidin-1-ylmethyl]-4,5-dihydroisoxazol-5-yl}-3H-benzoxazol-2-one]
FT (mg/kg), active dose ([2]; Table 2): >30 mg/kg
IC50 [1, 4]: 0.047 µM

Compound: O=c1[nH]c2ccc(-c3cc(CN4CCC(Cc5ccc(F)cc5)CC4)on3)cc2o1 [Example 15, 6-{5-[4-(4-Fluorobenzyl)piperidin-1-ylmethyl]isoxazol-3-yl}-3H-benzoxazol-2-one]
melting point: 237 to 244 °C
IC50 [1, 4]: 0.499 µM

Compound: O=C(O)C1(CN2CCC(Cc3ccc(F)cc3)CC2)CC(c2ccc3[nH]c(=O)oc3c2)=NO1 (stereo not shown) [Example 22, 5-[4-(4-Fluorobenzyl)piperidin-1-ylmethyl]-3-(2-oxo-2,3-dihydrobenzoxazol-6-yl)-4,5-dihydroisoxazole-5-carboxylic acid]
melting point: 188 to 194 °C
IC50 [1, 4]: 0.788 µM

Compound: CC1(CN2CCC(Cc3ccc(F)cc3)CC2)CC(c2ccc3[nH]c(=O)oc3c2)=NO1 (stereo not shown) [Example 21, 6-{5-[4-(4-Fluorobenzyl)piperidin-1-ylmethyl]-5-methyl-4,5-dihydroisoxazol-3-yl}-3H-benzoxazol-2-one]
melting point: 82 to 86 °C
IC50 [1, 4]: 0.011 µM

Compound: O=c1[nH]c2ccc(C3=NOC(CN4CCC(O)(c5ccccc5)CC4)C3)cc2o1 (stereo not shown) [Example 35]
melting point: 115 to 118 °C
IC50 [1, 3]: > 1 µM

Compound: O=c1[nH]c2ccc(C3=NOC(CN4CCC(Cc5ccc(F)cc5)CC4)C3)cc2o1 (single isomer, unassigned; (+)) [Example 4a, (+)-6-{5-[4-(4-fluorobenzyl)piperidin-1-ylmethyl]-4,5-dihydroisoxazol-3-yl}-3H-benzoxazol-2-one]
FT (mg/kg), active dose ([2]; Table 1): <10 mg/kg
IC50 ([1]; Table 1, 4 nM [3H]-ifenprodil, read-out: IFPNR (IC50 μM)): 0.016 µM

Continued, values first:

melting point: 214 to 217 °C
IC50 [1, 3]: 0.28 µM
Compound: O=c1[nH]c2ccc(C3=NOC(CN4CCC(c5ccc(F)cc5)CC4)C3)cc2o1 (stereo not shown) [Example 34, -{5-[4-(4-Fluorophenyl)piperidin-1-ylmethyl]-4,5-dihydroisoxazol-3-yl}-3H-benzoxazol-2-one]

melting point: 188 to 190 °C
IC50 [1, 5]: 0.759 µM
Compound: O=C(c1ccc(F)cc1)C1CCN(CC2CC(c3ccc4[nH]c(=O)oc4c3)=NO2)CC1 (stereo not shown) [Example 30, 6-{5-[4-(4-Fluorobenzoyl)piperidin-1-ylmethyl]-4,5-dihydroisoxazol-3-yl}-3H-benzoxazol-2-one]

melting point: 192 to 194 °C
IC50 [1, 5]: 0.059 µM
Compound: O=c1[nH]c2ccc(C3=NOC(CN4CCC(Oc5ccc(F)cc5)CC4)C3)cc2o1 (stereo not shown) [Example 27, 6-{5-[4-(4-Fluorophenoxy)piperidin-1-ylmethyl]-4,5-dihydroisoxazol-3-yl}-3-H-benzoxazol-2-one]

melting point: 131 to 132 °C
IC50 ([1]; Table 5, 4 nM [3H]-ifenprodil, read-out: IFPNR IC50): 0.014 µM
Compound: Cc1c(C2=NOC(CN3CCC(Cc4ccc(F)cc4)CC3)C2)cc2oc(=O)[nH]c2c1Cl (stereo not shown) [Example 33, 4-Chloro-6-{5-[4-(4-fluorobenzyl)piperidin-1-ylmethyl]-4,5-dihydroisoxazol-3-yl}-5-methyl-3H-benzoxazol-2-one]

melting point: 190 to 192 °C
IC50 [1, 5]: 0.018 µM
Compound: O=c1[nH]c2ccc(C3=NOC(CN4CCC(Sc5ccc(F)cc5)CC4)C3)cc2o1 (stereo not shown) [Example 28, 6-{5-[4-(4-Fluorophenylsulfanyl)piperidin-1-ylmethyl]-4,5-dihydroisoxazol-3-yl}-3H-benzoxazol-2-one]

melting point: 125 to 134 °C
IC50 [1, 5]: > 1 µM
Compound: CC(O)(c1ccc(F)cc1)C1CCN(CC2CC(c3ccc4[nH]c(=O)oc4c3)=NO2)CC1 (stereo not shown) [Example 32, 6-(5-{4-[1-(4-Fluorophenyl)-1-hydroxyethyl]piperidin-1-ylmethyl}-4,5-dihydroisoxazol-3-yl)-3H-benzoxazol-2-one]

melting point: 188 to 194 °C
IC50 [1, 3]: > 1 µM
Compound: O=c1[nH]c2ccc(C3=NOC(CCN4CCC(c5ccc(F)cc5)CC4)C3)cc2o1 (stereo not shown) [Example 36, 6-(5-{2-[4-(4-Fluorophenyl)piperidin-1-yl]ethyl}-4,5-dihydroisoxazol-3-yl)-3H-benzoxazol-2-one]
